Test results published in the NIST ThermoML archive (doi:10.1016/j.jct.2016.03.026).
± gives the expanded uncertainty stated by the source.

Test: xn = mol fraction of the nth substance listed
Settings: 313.15 K, Fluid (supercritical or subcritical phases), Vibrating tube method, x1 = 0.97

O=C=O [carbon dioxide] + CO
Settings | mass density [kg/m3]
11150 kPa | 721.68 ± 0.83
11175 kPa | 722.44 ± 0.83
11200 kPa | 723.12 ± 0.83
11225 kPa | 723.83 ± 0.83
11250 kPa | 724.5 ± 0.83
11275 kPa | 725.17 ± 0.83
11300 kPa | 725.87 ± 0.83
11325 kPa | 726.55 ± 0.83
11350 kPa | 727.24 ± 0.83
11375 kPa | 727.87 ± 0.83
11400 kPa | 728.58 ± 0.83
11425 kPa | 729.26 ± 0.83
11450 kPa | 729.89 ± 0.83
11475 kPa | 730.56 ± 0.83
11500 kPa | 731.23 ± 0.83
11525 kPa | 731.88 ± 0.83
11550 kPa | 732.54 ± 0.83
11575 kPa | 733.12 ± 0.83
11600 kPa | 733.75 ± 0.83
11625 kPa | 734.36 ± 0.83
11650 kPa | 734.97 ± 0.83
11675 kPa | 735.62 ± 0.83
11700 kPa | 736.24 ± 0.83
11725 kPa | 736.79 ± 0.83
11750 kPa | 737.41 ± 0.83
11775 kPa | 738.01 ± 0.83
11800 kPa | 738.59 ± 0.83
11825 kPa | 739.2 ± 0.83
11850 kPa | 739.81 ± 0.83
11875 kPa | 740.42 ± 0.83
11900 kPa | 741.01 ± 0.83
11925 kPa | 741.62 ± 0.83
11950 kPa | 742.23 ± 0.83
11975 kPa | 742.81 ± 0.83
12000 kPa | 743.38 ± 0.83
12025 kPa | 743.98 ± 0.83
12050 kPa | 744.51 ± 0.83
12075 kPa | 745.12 ± 0.83
12100 kPa | 745.65 ± 0.83
12125 kPa | 746.23 ± 0.83
12150 kPa | 746.78 ± 0.83
12175 kPa | 747.4 ± 0.83
12200 kPa | 747.95 ± 0.83
12225 kPa | 748.48 ± 0.83
12250 kPa | 749.04 ± 0.83
12275 kPa | 749.5 ± 0.83
12300 kPa | 750.05 ± 0.83
12325 kPa | 750.56 ± 0.83
12350 kPa | 751.14 ± 0.83
12375 kPa | 751.63 ± 0.83
12400 kPa | 752.14 ± 0.83
12425 kPa | 752.63 ± 0.83
12450 kPa | 753.18 ± 0.83
12475 kPa | 753.64 ± 0.83
12500 kPa | 754.12 ± 0.83
12525 kPa | 754.59 ± 0.83
12550 kPa | 755.09 ± 0.83
12575 kPa | 755.53 ± 0.83
12600 kPa | 756 ± 0.83
12625 kPa | 756.47 ± 0.83
12650 kPa | 756.92 ± 0.83
12675 kPa | 757.39 ± 0.83
12700 kPa | 757.86 ± 0.83
12725 kPa | 758.3 ± 0.83
12750 kPa | 758.68 ± 0.83
12775 kPa | 759.12 ± 0.83
12800 kPa | 759.54 ± 0.83
12825 kPa | 759.98 ± 0.83
12850 kPa | 760.36 ± 0.83
12875 kPa | 760.82 ± 0.83
12900 kPa | 761.3 ± 0.83
12925 kPa | 761.76 ± 0.83
12950 kPa | 762.23 ± 0.83
12975 kPa | 762.72 ± 0.83
13000 kPa | 763.15 ± 0.83
13025 kPa | 763.58 ± 0.83
13050 kPa | 764.07 ± 0.83
13075 kPa | 764.54 ± 0.83
13100 kPa | 764.93 ± 0.83
13125 kPa | 765.37 ± 0.83
13150 kPa | 765.86 ± 0.83
13175 kPa | 766.29 ± 0.83
13200 kPa | 766.75 ± 0.83
13225 kPa | 767.22 ± 0.83
13250 kPa | 767.6 ± 0.83
13275 kPa | 768.04 ± 0.83
13300 kPa | 768.47 ± 0.83
13325 kPa | 768.93 ± 0.83
13350 kPa | 769.37 ± 0.83
13375 kPa | 769.83 ± 0.83
13400 kPa | 770.23 ± 0.83
13425 kPa | 770.69 ± 0.83
13450 kPa | 771.07 ± 0.83
13475 kPa | 771.5 ± 0.83
13500 kPa | 771.93 ± 0.83
13525 kPa | 772.34 ± 0.83
13550 kPa | 772.7 ± 0.83
13575 kPa | 773.15 ± 0.83
13600 kPa | 773.57 ± 0.83
13625 kPa | 773.92 ± 0.83
13650 kPa | 774.36 ± 0.83
13675 kPa | 774.79 ± 0.83
13700 kPa | 775.16 ± 0.83
13725 kPa | 775.57 ± 0.83
13750 kPa | 776 ± 0.83
13775 kPa | 776.36 ± 0.83
13800 kPa | 776.72 ± 0.83
13825 kPa | 777.12 ± 0.83
13850 kPa | 777.52 ± 0.83
13875 kPa | 777.93 ± 0.83
13900 kPa | 778.33 ± 0.83
13925 kPa | 778.72 ± 0.83
13950 kPa | 779.11 ± 0.83
13975 kPa | 779.47 ± 0.83
14000 kPa | 779.85 ± 0.83
14025 kPa | 780.28 ± 0.83
14050 kPa | 780.67 ± 0.83
14075 kPa | 781.06 ± 0.83
14100 kPa | 781.44 ± 0.83
14125 kPa | 781.8 ± 0.83
14150 kPa | 782.18 ± 0.83
14175 kPa | 782.55 ± 0.83
14200 kPa | 782.93 ± 0.83
14225 kPa | 783.28 ± 0.83
14250 kPa | 783.65 ± 0.83
14275 kPa | 784.01 ± 0.83
14300 kPa | 784.39 ± 0.83
14325 kPa | 784.77 ± 0.83
14350 kPa | 785.15 ± 0.83
14375 kPa | 785.52 ± 0.83
14400 kPa | 785.88 ± 0.83
14425 kPa | 786.27 ± 0.83
14450 kPa | 786.66 ± 0.83
14475 kPa | 787.01 ± 0.83
14500 kPa | 787.34 ± 0.83
14525 kPa | 787.73 ± 0.83
14550 kPa | 788.05 ± 0.83
14575 kPa | 788.43 ± 0.83
14600 kPa | 788.78 ± 0.83
14625 kPa | 789.1 ± 0.83
14650 kPa | 789.51 ± 0.83
14675 kPa | 789.86 ± 0.83
14700 kPa | 790.23 ± 0.83
14725 kPa | 790.55 ± 0.83
14750 kPa | 790.91 ± 0.83
14775 kPa | 791.25 ± 0.83
14800 kPa | 791.65 ± 0.83
14825 kPa | 791.96 ± 0.83
14850 kPa | 792.31 ± 0.83
14875 kPa | 792.64 ± 0.83
14900 kPa | 793.03 ± 0.83
14925 kPa | 793.37 ± 0.83
14950 kPa | 793.74 ± 0.83
14975 kPa | 794.09 ± 0.83
15000 kPa | 794.4 ± 0.83
15025 kPa | 794.78 ± 0.83
15050 kPa | 795.16 ± 0.83
15075 kPa | 795.5 ± 0.83
15100 kPa | 795.8 ± 0.83
15125 kPa | 796.2 ± 0.83
15150 kPa | 796.56 ± 0.83
15175 kPa | 796.89 ± 0.83
15200 kPa | 797.19 ± 0.83
15225 kPa | 797.52 ± 0.83
15250 kPa | 797.89 ± 0.83
15275 kPa | 798.26 ± 0.83
15300 kPa | 798.53 ± 0.83
15325 kPa | 798.91 ± 0.83
15350 kPa | 799.22 ± 0.83
15375 kPa | 799.54 ± 0.83
15400 kPa | 799.88 ± 0.83
15425 kPa | 800.19 ± 0.83
15450 kPa | 800.53 ± 0.83
15475 kPa | 800.87 ± 0.83
15500 kPa | 801.17 ± 0.83
15525 kPa | 801.53 ± 0.83
15550 kPa | 801.84 ± 0.83
15575 kPa | 802.17 ± 0.83
15600 kPa | 802.47 ± 0.83
15625 kPa | 802.79 ± 0.83
15650 kPa | 803.12 ± 0.83
15675 kPa | 803.42 ± 0.83
15700 kPa | 803.73 ± 0.83
15725 kPa | 804.02 ± 0.83
15750 kPa | 804.34 ± 0.83
15775 kPa | 804.65 ± 0.83
15800 kPa | 804.99 ± 0.83
15825 kPa | 805.27 ± 0.83
15850 kPa | 805.58 ± 0.83
15875 kPa | 805.91 ± 0.83
15900 kPa | 806.23 ± 0.83
15925 kPa | 806.51 ± 0.83
15950 kPa | 806.83 ± 0.83
15975 kPa | 807.09 ± 0.83
16000 kPa | 807.41 ± 0.83
16025 kPa | 807.71 ± 0.83
16050 kPa | 807.98 ± 0.83
16075 kPa | 808.29 ± 0.83
16100 kPa | 808.61 ± 0.83
16125 kPa | 808.91 ± 0.83
16150 kPa | 809.2 ± 0.83
16175 kPa | 809.5 ± 0.83
16200 kPa | 809.79 ± 0.83
16225 kPa | 810.09 ± 0.83
16250 kPa | 810.39 ± 0.83
16275 kPa | 810.69 ± 0.83
16300 kPa | 810.98 ± 0.83
16325 kPa | 811.27 ± 0.83
16350 kPa | 811.55 ± 0.83
16375 kPa | 811.82 ± 0.83
16400 kPa | 812.11 ± 0.83
16425 kPa | 812.38 ± 0.83
16450 kPa | 812.66 ± 0.83
16475 kPa | 812.9 ± 0.83
16500 kPa | 813.24 ± 0.83
16525 kPa | 813.5 ± 0.83
16550 kPa | 813.76 ± 0.83
16575 kPa | 814.03 ± 0.83
16600 kPa | 814.33 ± 0.83
16625 kPa | 814.6 ± 0.83
16650 kPa | 814.87 ± 0.83
16675 kPa | 815.12 ± 0.83
16700 kPa | 815.43 ± 0.83
16725 kPa | 815.67 ± 0.83
16750 kPa | 815.94 ± 0.83
16775 kPa | 816.22 ± 0.83
16800 kPa | 816.46 ± 0.83
16825 kPa | 816.74 ± 0.83
16850 kPa | 817 ± 0.83
16875 kPa | 817.27 ± 0.83
16900 kPa | 817.54 ± 0.83
16925 kPa | 817.8 ± 0.83
16950 kPa | 818.05 ± 0.83
16975 kPa | 818.28 ± 0.83
17000 kPa | 818.55 ± 0.83
17025 kPa | 818.81 ± 0.83
17050 kPa | 819.06 ± 0.83
17075 kPa | 819.27 ± 0.83
17100 kPa | 819.55 ± 0.83
17125 kPa | 819.79 ± 0.83
17150 kPa | 820.09 ± 0.83
17175 kPa | 820.32 ± 0.83
17200 kPa | 820.54 ± 0.83
17225 kPa | 820.77 ± 0.83
